Assay results from US10800741B2 (ANCUREALL PHARMACEUTICAL (SHANGHAI) CO., LTD., priority 2017, dated 2020).

Columns and labels:
Experiment in all cases: KINOMEscan in vitro binding to 468 labeled protein kinases
protein kinases [1] = target: T1, protein kinases (Homo sapiens, UniProt P00533); conditions: EGFR
T1 construct: purchased Discovery X company (USA), KINOMEscan screening platform
Method: (§1) Test Example 6 Determination of Binding Affinity of the Present Compounds on Protein Kinases In Vitro
(§2) KINOMEscan screening platform of Discovery X company (USA) was used to identify the binding targets of the present compounds to protein kinases. Compound 66 of the present invention was dissolved in DMSO (Sigma Aldrich) at concentrations of 1000 nM, 10 nM and 1 nM, and then was subjected to in vitro binding reaction with 468 labeled protein kinases. Two samples were taken in parallel for each assay sample.
(§3) The lower the percentage of the test compound to the solvent control, the stronger the binding affinity of the test compound to the protein kinase in vitro.

protein kinases [2] = target: T2, protein kinases (Homo sapiens, UniProt P00519, M351T); conditions: ABL1(M351T)-phosphorylated, read-out: Test compound/solvent control (%)
T2 construct: purchased Discovery X company (USA), KINOMEscan screening platform
Method: as §1, §2, §3

protein kinases [3] = target: T3, protein kinases (Homo sapiens, UniProt P10721); conditions: KIT, read-out: Test compound/solvent control (%)
T3 construct: purchased Discovery X company (USA), KINOMEscan screening platform
T3 sequence (P10721 26-976): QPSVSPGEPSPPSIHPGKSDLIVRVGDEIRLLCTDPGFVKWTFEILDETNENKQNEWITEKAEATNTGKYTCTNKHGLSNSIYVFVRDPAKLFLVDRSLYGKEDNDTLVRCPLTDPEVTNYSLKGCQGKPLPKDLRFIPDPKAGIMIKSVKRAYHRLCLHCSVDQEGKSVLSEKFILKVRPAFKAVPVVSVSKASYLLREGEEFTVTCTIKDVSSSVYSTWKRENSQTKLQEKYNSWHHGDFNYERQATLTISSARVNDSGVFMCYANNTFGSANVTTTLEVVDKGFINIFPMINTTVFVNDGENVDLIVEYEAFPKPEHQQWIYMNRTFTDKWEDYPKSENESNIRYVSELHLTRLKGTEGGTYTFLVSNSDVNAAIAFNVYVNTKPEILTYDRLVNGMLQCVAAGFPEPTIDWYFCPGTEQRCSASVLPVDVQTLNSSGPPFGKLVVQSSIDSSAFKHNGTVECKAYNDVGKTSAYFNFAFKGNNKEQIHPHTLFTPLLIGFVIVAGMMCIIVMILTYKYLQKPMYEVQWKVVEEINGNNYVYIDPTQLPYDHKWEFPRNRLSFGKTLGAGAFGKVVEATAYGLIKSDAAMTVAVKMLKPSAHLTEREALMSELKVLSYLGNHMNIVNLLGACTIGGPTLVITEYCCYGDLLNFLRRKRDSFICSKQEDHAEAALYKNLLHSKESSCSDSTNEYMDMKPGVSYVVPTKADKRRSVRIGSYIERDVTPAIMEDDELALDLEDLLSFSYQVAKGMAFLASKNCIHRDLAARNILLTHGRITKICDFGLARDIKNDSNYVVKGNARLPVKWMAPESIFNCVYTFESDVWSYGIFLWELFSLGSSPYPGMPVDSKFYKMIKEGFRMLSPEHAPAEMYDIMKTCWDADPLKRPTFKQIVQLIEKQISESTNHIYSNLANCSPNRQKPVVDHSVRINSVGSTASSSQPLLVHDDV
Method: as §1, §2, §3

protein kinases [4] = target: T4, protein kinases (Homo sapiens, UniProt P00533, G719S); conditions: EGFR(G719S)
T4 construct: purchased Discovery X company (USA), KINOMEscan screening platform
T4 sequence (P00533 25-1210 G719S): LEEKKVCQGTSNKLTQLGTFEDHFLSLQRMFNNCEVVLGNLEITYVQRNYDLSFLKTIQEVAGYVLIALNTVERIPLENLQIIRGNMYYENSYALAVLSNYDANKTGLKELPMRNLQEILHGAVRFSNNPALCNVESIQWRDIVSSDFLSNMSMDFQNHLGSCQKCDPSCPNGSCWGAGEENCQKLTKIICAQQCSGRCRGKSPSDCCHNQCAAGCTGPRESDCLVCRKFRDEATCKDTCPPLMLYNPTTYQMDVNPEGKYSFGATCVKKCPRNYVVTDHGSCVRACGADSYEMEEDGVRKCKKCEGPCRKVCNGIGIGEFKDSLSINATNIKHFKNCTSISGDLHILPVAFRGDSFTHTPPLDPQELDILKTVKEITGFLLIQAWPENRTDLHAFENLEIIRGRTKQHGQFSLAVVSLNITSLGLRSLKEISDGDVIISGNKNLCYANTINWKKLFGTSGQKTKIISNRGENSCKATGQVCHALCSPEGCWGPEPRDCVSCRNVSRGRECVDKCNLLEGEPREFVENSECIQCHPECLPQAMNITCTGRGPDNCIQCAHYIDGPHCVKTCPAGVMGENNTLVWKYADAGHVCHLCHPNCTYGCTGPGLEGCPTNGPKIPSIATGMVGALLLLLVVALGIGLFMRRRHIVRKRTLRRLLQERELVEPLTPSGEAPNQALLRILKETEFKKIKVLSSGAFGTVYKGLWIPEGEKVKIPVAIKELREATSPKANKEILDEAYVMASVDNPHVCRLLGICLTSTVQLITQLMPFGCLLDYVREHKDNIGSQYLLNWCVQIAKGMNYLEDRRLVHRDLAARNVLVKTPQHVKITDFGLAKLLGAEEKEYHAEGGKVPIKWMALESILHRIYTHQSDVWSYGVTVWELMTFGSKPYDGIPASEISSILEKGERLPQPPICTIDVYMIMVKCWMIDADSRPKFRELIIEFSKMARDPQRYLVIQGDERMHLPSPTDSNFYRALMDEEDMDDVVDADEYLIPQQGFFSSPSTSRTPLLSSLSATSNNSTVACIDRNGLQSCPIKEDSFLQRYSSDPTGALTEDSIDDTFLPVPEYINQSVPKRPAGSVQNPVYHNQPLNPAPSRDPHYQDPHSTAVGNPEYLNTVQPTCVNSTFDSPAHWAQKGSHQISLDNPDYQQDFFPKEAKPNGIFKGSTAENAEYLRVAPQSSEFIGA
Method: as §1, §2, §3

protein kinases [5] = target: T5, protein kinases (Homo sapiens, UniProt P36888, R834Q); conditions: FLT3(R834Q), read-out: Test compound/solvent control (%)
T5 construct: purchased Discovery X company (USA), KINOMEscan screening platform
T5 sequence (P36888 27-993 R834Q): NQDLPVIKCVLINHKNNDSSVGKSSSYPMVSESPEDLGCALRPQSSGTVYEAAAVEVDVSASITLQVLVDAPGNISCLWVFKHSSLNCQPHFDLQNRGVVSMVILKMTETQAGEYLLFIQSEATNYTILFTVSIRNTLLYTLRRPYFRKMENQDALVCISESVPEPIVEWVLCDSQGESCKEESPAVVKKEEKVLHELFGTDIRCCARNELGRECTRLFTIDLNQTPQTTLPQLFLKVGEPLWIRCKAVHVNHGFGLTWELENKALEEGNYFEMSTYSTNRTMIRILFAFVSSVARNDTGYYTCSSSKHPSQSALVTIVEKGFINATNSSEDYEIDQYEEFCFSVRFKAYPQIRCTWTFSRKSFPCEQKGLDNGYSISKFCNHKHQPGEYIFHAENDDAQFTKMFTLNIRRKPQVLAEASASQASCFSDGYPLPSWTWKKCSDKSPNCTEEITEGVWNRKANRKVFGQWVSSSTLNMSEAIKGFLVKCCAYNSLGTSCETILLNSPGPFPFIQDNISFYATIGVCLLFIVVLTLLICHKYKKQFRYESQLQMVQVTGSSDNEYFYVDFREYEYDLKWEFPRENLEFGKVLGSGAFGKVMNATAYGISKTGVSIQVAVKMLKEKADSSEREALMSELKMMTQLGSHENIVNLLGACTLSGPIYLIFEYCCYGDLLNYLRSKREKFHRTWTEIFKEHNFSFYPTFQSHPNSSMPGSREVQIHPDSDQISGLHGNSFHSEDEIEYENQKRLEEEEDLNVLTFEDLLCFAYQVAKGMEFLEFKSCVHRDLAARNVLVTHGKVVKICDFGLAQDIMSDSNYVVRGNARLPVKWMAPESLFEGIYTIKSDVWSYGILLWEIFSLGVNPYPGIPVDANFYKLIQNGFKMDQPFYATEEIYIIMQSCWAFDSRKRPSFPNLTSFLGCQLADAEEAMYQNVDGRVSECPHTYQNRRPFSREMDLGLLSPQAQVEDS
Method: as §1, §2, §3

protein kinases [6] = target: T6, protein kinases (Homo sapiens, UniProt Q12866); conditions: MERTK, read-out: Test compound/solvent control (%)
T6 construct: purchased Discovery X company (USA), KINOMEscan screening platform
T6 sequence (Q12866 21-999): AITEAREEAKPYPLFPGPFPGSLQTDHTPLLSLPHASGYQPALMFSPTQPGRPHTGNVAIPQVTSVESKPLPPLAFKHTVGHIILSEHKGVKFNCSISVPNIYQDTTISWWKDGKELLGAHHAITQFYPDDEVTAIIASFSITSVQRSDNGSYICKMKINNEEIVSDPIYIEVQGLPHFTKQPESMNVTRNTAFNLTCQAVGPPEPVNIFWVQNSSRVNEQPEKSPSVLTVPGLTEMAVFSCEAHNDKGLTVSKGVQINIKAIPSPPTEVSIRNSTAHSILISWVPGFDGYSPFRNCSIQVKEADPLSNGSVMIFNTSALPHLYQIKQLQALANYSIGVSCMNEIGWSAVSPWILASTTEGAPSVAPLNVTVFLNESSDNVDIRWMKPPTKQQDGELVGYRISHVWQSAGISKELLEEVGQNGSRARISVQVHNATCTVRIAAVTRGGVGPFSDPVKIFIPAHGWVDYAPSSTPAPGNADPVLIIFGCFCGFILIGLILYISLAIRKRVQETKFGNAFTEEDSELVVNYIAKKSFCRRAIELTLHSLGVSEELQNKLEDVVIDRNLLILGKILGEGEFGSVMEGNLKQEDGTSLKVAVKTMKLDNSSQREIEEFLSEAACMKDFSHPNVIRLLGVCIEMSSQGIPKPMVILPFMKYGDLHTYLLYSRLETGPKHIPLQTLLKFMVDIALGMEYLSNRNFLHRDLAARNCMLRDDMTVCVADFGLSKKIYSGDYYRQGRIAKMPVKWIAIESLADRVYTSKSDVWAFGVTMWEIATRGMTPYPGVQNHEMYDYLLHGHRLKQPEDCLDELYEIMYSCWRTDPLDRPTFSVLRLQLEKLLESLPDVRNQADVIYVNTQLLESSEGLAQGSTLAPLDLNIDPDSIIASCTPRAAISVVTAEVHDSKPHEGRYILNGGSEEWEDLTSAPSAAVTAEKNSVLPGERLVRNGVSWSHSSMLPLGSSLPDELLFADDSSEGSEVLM
Method: as §1, §2, §3

protein kinases [7] = target: T7, protein kinases (Homo sapiens, UniProt P22607, G697C); conditions: FGFR3(G697C), read-out: Test compound/solvent control (%)
T7 construct: purchased Discovery X company (USA), KINOMEscan screening platform
T7 sequence (P22607 23-806 G697C): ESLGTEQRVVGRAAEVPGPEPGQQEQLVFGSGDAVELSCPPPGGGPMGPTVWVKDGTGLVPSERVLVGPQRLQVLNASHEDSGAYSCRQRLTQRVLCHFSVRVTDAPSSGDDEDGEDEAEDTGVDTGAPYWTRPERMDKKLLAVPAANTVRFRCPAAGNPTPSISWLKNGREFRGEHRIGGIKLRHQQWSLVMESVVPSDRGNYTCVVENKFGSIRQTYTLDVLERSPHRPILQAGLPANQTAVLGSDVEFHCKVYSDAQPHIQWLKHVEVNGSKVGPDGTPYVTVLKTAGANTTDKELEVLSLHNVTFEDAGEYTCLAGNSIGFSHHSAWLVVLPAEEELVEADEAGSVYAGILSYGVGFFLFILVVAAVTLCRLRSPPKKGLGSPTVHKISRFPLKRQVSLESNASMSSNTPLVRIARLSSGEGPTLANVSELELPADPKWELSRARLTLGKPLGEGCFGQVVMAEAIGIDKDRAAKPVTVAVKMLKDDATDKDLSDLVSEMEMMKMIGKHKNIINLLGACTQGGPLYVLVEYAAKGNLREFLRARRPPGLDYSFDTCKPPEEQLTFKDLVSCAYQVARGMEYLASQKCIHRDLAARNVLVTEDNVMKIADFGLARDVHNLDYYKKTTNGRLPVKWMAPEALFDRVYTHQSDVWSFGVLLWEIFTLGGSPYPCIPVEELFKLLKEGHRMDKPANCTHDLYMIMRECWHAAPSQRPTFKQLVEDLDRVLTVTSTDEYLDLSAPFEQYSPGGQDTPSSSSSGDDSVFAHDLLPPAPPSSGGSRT
Method: as §1, §2, §3

protein kinases [8] = target: T8, protein kinases (Homo sapiens, UniProt Q16620); conditions: TRKB (NTRK2), read-out: Test compound/solvent control (%)
T8 construct: purchased Discovery X company (USA), KINOMEscan screening platform
T8 sequence (Q16620 32-822): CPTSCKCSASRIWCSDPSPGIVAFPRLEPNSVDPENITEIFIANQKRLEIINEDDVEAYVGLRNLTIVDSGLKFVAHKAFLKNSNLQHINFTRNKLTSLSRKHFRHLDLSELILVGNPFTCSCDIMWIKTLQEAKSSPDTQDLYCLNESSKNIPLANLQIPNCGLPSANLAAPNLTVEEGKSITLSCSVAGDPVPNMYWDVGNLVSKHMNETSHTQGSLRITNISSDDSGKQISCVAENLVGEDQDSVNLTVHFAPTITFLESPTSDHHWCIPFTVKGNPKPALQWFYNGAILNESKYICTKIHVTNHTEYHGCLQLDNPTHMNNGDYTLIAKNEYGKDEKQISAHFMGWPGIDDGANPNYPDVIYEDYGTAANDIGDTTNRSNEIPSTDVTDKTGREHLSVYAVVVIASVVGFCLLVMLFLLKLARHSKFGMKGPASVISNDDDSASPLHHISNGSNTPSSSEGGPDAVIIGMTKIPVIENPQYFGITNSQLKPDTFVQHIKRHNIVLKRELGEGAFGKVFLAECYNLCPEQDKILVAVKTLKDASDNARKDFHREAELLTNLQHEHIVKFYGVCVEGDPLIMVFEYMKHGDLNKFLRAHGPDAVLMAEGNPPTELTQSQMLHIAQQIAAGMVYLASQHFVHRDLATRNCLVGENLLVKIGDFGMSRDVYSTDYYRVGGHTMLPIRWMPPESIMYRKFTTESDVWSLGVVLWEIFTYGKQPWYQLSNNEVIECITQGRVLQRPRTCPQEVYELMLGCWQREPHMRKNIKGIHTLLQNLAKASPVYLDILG
Method: as §1, §2, §3

T1 sequence (P00533 25-1210): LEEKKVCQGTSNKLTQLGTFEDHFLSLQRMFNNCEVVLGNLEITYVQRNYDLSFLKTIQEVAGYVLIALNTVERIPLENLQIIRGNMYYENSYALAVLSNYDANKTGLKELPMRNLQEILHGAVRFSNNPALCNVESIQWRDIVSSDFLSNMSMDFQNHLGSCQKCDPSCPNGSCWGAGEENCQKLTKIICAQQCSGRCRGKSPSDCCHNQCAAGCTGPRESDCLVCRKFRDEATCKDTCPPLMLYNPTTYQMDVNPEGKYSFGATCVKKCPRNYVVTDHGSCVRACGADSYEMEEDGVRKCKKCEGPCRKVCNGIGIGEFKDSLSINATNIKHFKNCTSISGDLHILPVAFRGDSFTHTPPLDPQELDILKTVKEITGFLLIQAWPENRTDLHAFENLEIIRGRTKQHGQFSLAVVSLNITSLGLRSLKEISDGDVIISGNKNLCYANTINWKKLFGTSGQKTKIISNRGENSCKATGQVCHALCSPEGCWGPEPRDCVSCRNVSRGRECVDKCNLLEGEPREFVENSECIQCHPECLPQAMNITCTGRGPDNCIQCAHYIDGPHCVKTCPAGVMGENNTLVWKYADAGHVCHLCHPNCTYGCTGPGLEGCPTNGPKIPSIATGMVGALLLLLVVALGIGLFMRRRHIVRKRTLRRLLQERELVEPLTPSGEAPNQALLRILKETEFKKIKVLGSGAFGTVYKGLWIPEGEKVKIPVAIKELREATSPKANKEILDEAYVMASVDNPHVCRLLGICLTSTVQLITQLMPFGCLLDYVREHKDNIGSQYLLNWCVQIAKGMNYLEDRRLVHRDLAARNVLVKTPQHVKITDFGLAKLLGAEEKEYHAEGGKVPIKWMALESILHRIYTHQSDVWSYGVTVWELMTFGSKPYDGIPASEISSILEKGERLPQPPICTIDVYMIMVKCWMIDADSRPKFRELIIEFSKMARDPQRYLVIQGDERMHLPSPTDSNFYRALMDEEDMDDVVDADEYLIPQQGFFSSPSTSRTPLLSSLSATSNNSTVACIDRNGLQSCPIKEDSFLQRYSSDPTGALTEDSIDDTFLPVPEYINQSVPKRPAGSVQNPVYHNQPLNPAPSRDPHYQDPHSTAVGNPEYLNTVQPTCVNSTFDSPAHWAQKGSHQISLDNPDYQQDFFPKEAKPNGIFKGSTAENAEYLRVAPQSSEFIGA

- Test compound/solvent control (%) (protein kinases [1]; 1 nM): 100%
- Test compound/solvent control (%) (protein kinases [1]; 10 nM): 26%
- Test compound/solvent control (%) (protein kinases [1]; 1000 nM): 0%
- remaining binding at 0.001 µM (protein kinases [2]; 1 nM): 100%
- remaining binding at 0.01 µM (protein kinases [2]; 10 nM): 22%
- remaining binding at 1 µM (protein kinases [2]; 1000 nM): 0.65%
- remaining binding at 0.001 µM (protein kinases [3]; 1 nM): 90%
- remaining binding at 0.01 µM (protein kinases [3]; 10 nM): 27%
- remaining binding at 1 µM (protein kinases [3]; 1000 nM): 0%
- Test compound/solvent control (%) (protein kinases [4]; 1 nM): 77%
- Test compound/solvent control (%) (protein kinases [4]; 10 nM): 18%
- Test compound/solvent control (%) (protein kinases [4]; 1000 nM): 0%
- remaining binding at 0.001 µM (protein kinases [5]; 1 nM): 83%
- remaining binding at 0.01 µM (protein kinases [5]; 10 nM): 45%
- remaining binding at 1 µM (protein kinases [5]; 1000 nM): 0.6%
- remaining binding at 0.001 µM (protein kinases [6]; 1 nM): 57%
- remaining binding at 0.01 µM (protein kinases [6]; 10 nM): 4.1%
- remaining binding at 1 µM (protein kinases [6]; 1000 nM): 0.65%
- remaining binding at 0.001 µM (protein kinases [7]; 1 nM): 81%
- remaining binding at 0.01 µM (protein kinases [7]; 10 nM): 54%
- remaining binding at 1 µM (protein kinases [7]; 1000 nM): 0.05%
- remaining binding at 0.001 µM (protein kinases [8]; 1 nM): 65%
- remaining binding at 0.01 µM (protein kinases [8]; 10 nM): 12%
- remaining binding at 1 µM (protein kinases [8]; 1000 nM): 0.35%
Structure (SMILES): COCCOc1cc2nccc(Oc3ccc(NC(=O)Nc4cc(C(C)(C)C)n[nH]4)c(Cl)c3)c2cc1NC(C)=O [Compound 66, N-[4-{4-[3-(5-tert-butyl-2H-pyrazol-3-yl)-ureido]-3-chloro-phenoxy}-7-(2-methoxy-ethoxy)-quinolin-6-yl]-acetamide]
